Experimental data: paper PMC4467461, “Small-molecule activation of SERCA2a SUMOylation for the treatment of heart failure” (Nature Communications, 2015)

Test system: isolated adult cardiomyocytes
Assay: Cardiomyocyte contractility and calcium transient, video-based edge-detection system (IonOptix)
Type: cell-based, Sprague–Dawley rats
Protocol: Figure 1 N106 increases SERCA2a’s cellular activity and SUMOylation in adult cardiomyocytes. In-vitro characterization of activators of SERCA2a SUMOylation. Cell-based screening of small molecules identified one promising compound. Adult ventricular cardiomyocytes were isolated from Sprague–Dawley rats and treated with small molecules on dose-dependent manner for 24 h. DMSO-treated cardiomyocytes were used as a negative control. (a) Chemical structure of SERCA2a SUMOylation activator. N106, N-(4-methoxybenzo[d]thiazol-2-yl)-5-(4-methoxyphenyl)-1,3,4-oxadiazol-2-amine. (b-g) The effects of N106 compound in cardiomyocyte contractility and calcium transient. The dose-dependent effects of N106 compound presented on peak shortening, the time to maximal departure velocity, the time to maximal return velocity, calcium ratio, decay time constant (τ) and the time to 90% baseline (t90) fluorescence in cardiomyocytes were assessed using a video-based edge-detection system (IonOptix Inc.). n=25 cardiomyocytes from each three of hearts per condition. (h) The effects of N106 compound on the ATPase activity of SERCA2a. The ATPase activity were measured at 25 °C in 50 mM MOPS, 100 mM KCl, 5 mM MgCl2, 1 mM […] at pCa 5.0 by using a coupled enzyme system consisting of pyruvate kinase and lactate dehydrogenase, and monitoring the oxidation of the reduced form of NADH at […]. The enzyme activity was determined by using same set of cardiomyocytes. (i) The effect of N106 compound for the formation of SUMOylated SERCA2a was determined using the same set of cardiomyocytes. Endogenous SERCA2a SUMOylation was detected by immunoprecipitation with anti-SERCA2a and then western blotting with anti-SUMO-1 antibodies. The experiments shown are representative of three independent experiments with similar results. (j) The effect of N106 compound on global SUMOylation was measured by western blot analysis with an anti-SUMO-1 antibody in the same set of cardiomyocytes. The experiments shown are representative of three independent western blottings. Data are represented as mean±s.e.m. (n=3 mice hearts per each condition). Data are represented as mean±s.e.m. *P≤0.05; **P<0.001 (Student’s t-test) from DMSO control.
Figure 2 Time-course experiments with N106 in isolated adult cardiomyocytes. (a–f) Adult ventricular cardiomyocytes were isolated from Sprague–Dawley rats and treated with 10 μM of N106 compound over a time course as indicated. The time course of the contractile response to N106 was determined as peak shortening (a), the time to maximal velocity of sarcomere shortening (b) and re-lengthening (c). The time-course changes in calcium kinetic parameters such as calcium transient (d), decay time constant (e) and the time to 90% baseline fluorescence in cardiomyocytes (f) were detected. n=25 cardiomyocytes from each three of hearts per condition. DMSO was used as vehicle control. The time courses of the ATPase activity of SERCA2a (g), level of SUMOylated SERCA2a (h) and level of SUMO-1 conjugates (i) were determined by using the same set of cardiomyocytes (two independent experiments). Data are represented as mean±s.e.m. *P≤0.05; **P<0.001 (Student’s t-test) from DMSO control.
Ventricular heart muscle cells were isolated from 180∼250 g male Sprague–Dawley rats as described. The hearts were perfused sequentially with low-calcium buffer, enzyme solutions containing collagenases and proteases, and high-potassium solution. Next, the hearts were minced, filtered and resuspended in high-potassium solution. The cardiomyocytes were plated on laminin-coated plates and cultured in medium M199 (Life Technologies, CT, USA) containing proper supplements. […]

[1] = screen of eight compounds, 10 μM, 24 h

COc1ccc(-c2nnc(Nc3nc4c(OC)cccc4s3)o2)cc1 [Compound N106, N-(4-methoxybenzo[d]thiazol-2-yl)-5-(4-methoxyphenyl)-1,3,4-oxadiazol-2-amine]
inotropic effect in isolated cardiomyocytes (10 μM, 24 h): positive inotropic effects
positive effect on cardiomyocytes contractility (at over 50 μM concentration): no longer observed
Calcium-transient amplitude (dose–response, 10 nM, 24 h): 0.18±0.01
exponential decay of time constant, τ (dose–response, 10 nM, 24 h): 0.20 ± 0.01 s
maximal velocities of cell contraction (dose–response, 10 nM, 24 h): −1.93±0.08 μm s^−1
maximal velocities of cell relaxation (dose–response, 10 nM, 24 h): 1.76±0.08 μm s^−1
peak shortening (dose–response, 10 nM, 24 h): 7.63±0.48%
time for 90% decay, t90 (dose–response, 10 nM, 24 h): 0.47 ± 0.02 s
Calcium-transient amplitude (dose–response, 100 nM, 24 h): 0.21±0.01
exponential decay of time constant, τ (dose–response, 100 nM, 24 h): 0.20 ± 0.01 s
maximal velocities of cell contraction (dose–response, 100 nM, 24 h): −2.17±0.10 μm s^−1
maximal velocities of cell relaxation (dose–response, 100 nM, 24 h): 1.98±0.12 μm s^−1
peak shortening (dose–response, 100 nM, 24 h): 8.36±0.56%
time for 90% decay, t90 (dose–response, 100 nM, 24 h): 0.44 ± 0.02 s
Calcium-transient amplitude (dose–response, 10 μM, 24 h): 0.19±0.00
exponential decay of time constant, τ (dose–response, 10 μM, 24 h): 0.16 ± 0.008 s
maximal velocities of cell contraction (dose–response, 10 μM, 24 h): −2.30±0.19 μm s^−1
maximal velocities of cell relaxation (dose–response, 10 μM, 24 h): 1.99±0.15 μm s^−1
peak shortening (dose–response, 10 μM, 24 h): 9.10±0.52%
time for 90% decay, t90 (dose–response, 10 μM, 24 h): 0.35 ± 0.006 s
peak shortening [1]: 12.03±0.80%
transient calcium decay τ [1]: 0.18 ± 0.02 s
calcium amplitude (ratio 360/380 nm) (time course, 10 μM, 10 min): 0.19±0.01
maximal velocities of cell contraction (time course, 10 μM, 10 min): −1.97±0.04 μm s^−1
maximal velocities of cell relaxation (time course, 10 μM, 10 min): 1.12±0.11 μm s^−1
peak shortening (time course, 10 μM, 10 min): 9.65±0.27%
t90 (time course, 10 μM, 10 min): 0.40 ± 0.03 s
τ (time course, 10 μM, 10 min): 0.17 ± 0.02 s
maximal velocities of cell contraction (time course, 10 μM, 1 h): −1.92±0.09 μm s^−1
maximal velocities of cell relaxation (time course, 10 μM, 1 h): 1.67±0.15 μm s^−1
peak shortening (time course, 10 μM, 1 h): 8.60±0.23%
t90 (time course, 10 μM, 1 h): 0.35 ± 0.01 s
τ (time course, 10 μM, 1 h): 0.14 ± 0.02 s
calcium amplitude (ratio 360/380 nm) (time course, 10 μM, 1 h (P=0.17)): 0.17±0.01
calcium amplitude (ratio 360/380 nm) (time course, 10 μM, 24 h): 0.18±0.008
maximal velocities of cell contraction (time course, 10 μM, 24 h): −2.3±0.19 μm s^−1
maximal velocities of cell relaxation (time course, 10 μM, 24 h): 1.99±0.15 μm s^−1
peak shortening (time course, 10 μM, 24 h): 8.90±0.38%
t90 (time course, 10 μM, 24 h): 0.35 ± 0.006 s
τ (time course, 10 μM, 24 h): 0.16 ± 0.008 s
